Experimental data taken from ChEMBL document CHEMBL1150679, “Genipatriol, a new cycloartane triterpene from Genipa spruceana” (J Nat Prod, 2003).
Calls of active or inactive are those of the source. The rule behind the calls is not given here.

System: Nakaseomyces glabratus
Experiment: Antimicrobial activity against Candida glabrata assessed as reversal of azole resistance after 24 to 48 hrs
Assay type: functional, organism-based

Compound	Activity
C[C@H]1[C@H](C)CC[C@]2(C(=O)O)CC[C@]3(C)C(=CC[C@@H]4[C@@]5(C)CC[C@H](O)C(C)(C)[C@@H]5CC[C@]43C)[C@H]12	inactive
C/C(=C/CC[C@@H](C)[C@H]1CC[C@@]2(C)[C@@H]3CC[C@H]4C(C)(C)[C@@H](O)[C@H](O)C[C@@]45C[C@@]35CC[C@]12C)CO	inactive
